Here are results for 5 compounds from PubChem BioAssay (NCI).

Molecules are shown by their SMILES.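 96-well plates; 48 h exposure; 5 concentrations. Endpoints by linear interpolation between flanking doses. Not reached: highest tested concentration assigned. The concentration for 50% growth inhibition is given as GI50. TGI: total growth inhibition.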

Among the test systems are BT-549 breast; HCT-116 colon; KM12 colon; LOX IMVI melanoma; NCI-H23 lung; OVCAR-3 ovarian; PC-3 prostate; SK-MEL-5 melanoma; SNB-19 CNS; TK-10 renal.
Holding throughout (assay): DTP human tumour cell line panel, 48 h

By TGI is commonly meant the concentration at which net growth stops. A lower TGI goes with more potent growth arrest. On to `CCCNC(=O)Nc1ccc2c(c1)Cc1cc(N(CCCl)CCCl)ccc1-2`, for which the TGI was 85 µM in the assay on BT-549 breast; above 100 µM in the assay with HCT-116 colon; 56.5 µM with KM12 colon; above 100 µM in the assay with LOX IMVI melanoma; above 100 µM with NCI-H23 lung; 54.4 µM in the assay on OVCAR-3 ovarian. The concentration for total growth inhibition (TGI) was above 100 µM with PC-3 prostate, 33 µM with SK-MEL-5 melanoma, 94.8 µM in the assay with SNB-19 CNS and above 100 µM in the assay with TK-10 renal.

A word on the GI50: it is the concentration giving 50% growth inhibition. For `O=C(N/N=C/c1cccc(O)c1)c1ccc(C(F)(F)F)nc1Nc1cccc(C(F)(F)F)c1`, the GI50 was 0.76 µM with BT-549 breast; 1.93 µM in the assay on HCT-116 colon; 1.69 µM in the assay with KM12 colon; 1.17 µM with LOX IMVI melanoma; 1.62 µM in the assay with NCI-H23 lung; 1.03 µM in the assay on OVCAR-3 ovarian. Moreover, the GI50 with PC-3 prostate was 1.66 µM; with SK-MEL-5 melanoma, 1.21 µM; with SNB-19 CNS it was 2.51 µM; with TK-10 renal, 1.44 µM. The total growth inhibition concentration (TGI) in the assay with BT-549 breast was 3.41 µM; with HCT-116 colon, 5.69 µM; in the assay on KM12 colon it was 5.22 µM; with LOX IMVI melanoma, 3.17 µM; in the assay with NCI-H23 lung it was 5.07 µM; with OVCAR-3 ovarian, 4.79 µM. For the same compound, the concentration for total growth inhibition (TGI) stood at 7.67 µM with PC-3 prostate, 2.44 µM in the assay on SK-MEL-5 melanoma, 12 µM in the assay with SNB-19 CNS and 4.64 µM with TK-10 renal.

`N#CC1C(=O)NC(=O)C(C#N)C1c1ccc(Cl)c(Cl)c1` (stereo not given): the TGI was above 100 µM in the assay on BT-549 breast; 29.7 µM in the assay on HCT-116 colon; above 100 µM in the assay on KM12 colon; 34.4 µM in the assay on LOX IMVI melanoma; 49.2 µM in the assay with NCI-H23 lung; 67 µM in the assay on OVCAR-3 ovarian. Also, the concentration for total growth inhibition (TGI) in the assay with PC-3 prostate is above 100 µM; with SK-MEL-5 melanoma it was 48.3 µM; with SNB-19 CNS, above 100 µM; in the assay on TK-10 renal, 98.4 µM.

With `O=C1CC2OCC=C3CN4CCC56c7ccccc7N1C5C2C3CC46` (stereo not given) (tested in a mixture with another compound), the GI50 in the assay on BT-549 breast, in the assay with HCT-116 colon, in the assay with KM12 colon, in the assay with LOX IMVI melanoma, in the assay on NCI-H23 lung and in the assay on OVCAR-3 ovarian was above 50 µg/mL in each case. Besides, the GI50 in the assay with PC-3 prostate, with SK-MEL-5 melanoma, in the assay on SNB-19 CNS and with TK-10 renal was above 50 µg/mL in each case. For the same compound, the TGI in the assay on BT-549 breast, in the assay on HCT-116 colon, with KM12 colon, in the assay with LOX IMVI melanoma, in the assay with NCI-H23 lung and in the assay with OVCAR-3 ovarian was above 50 µg/mL in each case. Moreover, the TGI with PC-3 prostate, with SK-MEL-5 melanoma, with SNB-19 CNS and with TK-10 renal was above 50 µg/mL in each case.

For `CN(C)c1ccc(/C=N/NC(=O)c2cnc3ccccc3c2)cc1`, the TGI with BT-549 breast, with HCT-116 colon, in the assay with KM12 colon, with LOX IMVI melanoma, in the assay with NCI-H23 lung and in the assay with OVCAR-3 ovarian was above 100 µM throughout. Also, the TGI in the assay with PC-3 prostate, in the assay on SK-MEL-5 melanoma, with SNB-19 CNS and in the assay with TK-10 renal was above 100 µM each time.
